Four compounds from US8580814B2, “Methods of using (+)-1,4-dihydro-7-[(3S,4S)-3-methoxy-4-(methylamino)-1-pyrrolidinyl]-4- oxo-1-(2-thiazolyl)-1,8-naphthyridine-3-carboxylic acid for treatment of cancer” (priority 2006, dated 2013) can be followed below.

The subject of data set [1] is HCT-116 cells treated with 2 mM caffeine. The data set is described as follows: MTT assay, sensitization (caffeine). The note with it: 2 mM caffeine pre-treated for 16 hours, compound 72 hours. In kind it is cell-based. The method, then:
(§1) Cells were then incubated with 5% MTT for 1-2 hours and lysed. MTT was colorimetrically read at 570 nm and EC50's were determined using linear regression analysis.
(§2) Sensitization was carried out with various chemical treatments.
(Tetrazolium assays rely on reduction of a dye to a coloured formazan, in cell work by metabolically active cells.)

Data set [2] concerns MO59J (DNAPKcs(−/−)) vs MO59K (DNAPKCs(+/+)). As to the kind of experiment: MTT assay, sensitization (DNAPKcs(−/−)). In kind it is cell-based. The note with it: MO59J (DNAPKcs(−/−)) vs MO59K (DNAPKCs(+/+)); compound 72 hours. How it is done: as §1, §2
Data set [3] concerns HCT-116 cells with 6 fold lower ATR levels. As to the kind of experiment: MTT assay, sensitization (ATRFLOX). The note with it: compound 72 hours. In kind it is cell-based. How it is done:
as §1, §2

For data set [4], the system named is CEM/C2 (camptothecan resistant derivative of CCRF-CEM). The data set is described as follows: MTT cell viability assay, leukemia cells. In kind it is cell-based. The conditions noted are these: Homo sapiens; CEM/C2, MTT after 72 hours. The method, then:
(§3) The following cell lines were used in this assay: HL-60 (promyelocytic leukemia); Jurkat (T cell leukemia); CCRF-CEM (lymphoblastic leukemia); CEM/C2 (camptothecan resistant derivative of CCRF-CEM). Cells were seeded in 96 wells plates at 3000 cells per well and incubated for 16 hours. […] Titrations were diluted 1:100 in media to achieve final compound concentrations. The 96 well plates were aspirated and compound dilutions in media were added ([…]). MTT analysis was carried out after 72 hours of incubation at 37° C. Briefly, […] of MTT solution was added to each well. Cells were incubated at 37° C. for 1-2 hours. […] Plates were read on a spectromax machine with an absorbance measurement at […]. IC50's were calculated (data provided in Table 13) using regression analysis within GraphPad Prism.

Data set [5] relates to CCRF-CEM (lymphoblastic leukemia). As to the kind of experiment: MTT cell viability assay, leukemia cells. The note with it: Homo sapiens, MTT after 72 hours. In kind it is cell-based. The method, then: as §3
Data set [6] concerns HL-60 (promyelocytic leukemia). As to the kind of experiment: MTT cell viability assay, leukemia cells. In kind it is cell-based. The note with it: Homo sapiens; HL-60, MTT after 72 hours. How it is done: as §3
The test system of data set [7] is CCRF-CEM acute lymphoblastic leukemia tumor. As to the kind of experiment: CCRF-CEM xenograft model. In kind it is in vivo, nude mice. How it is done:
CCRF-CEM acute lymphoblastic leukemia tumor lobes of 2-3 mm square were transplanted subcutaneously into nude mice. Tumors were allowed to grow to approximately 8-20 mm in diameter. […] Acceptable toxicity was defined as a mean group weight loss of 30% or less and not more than one toxic death among 6 treated animals. Anti-tumor activities of the drugs were assessed 20 or 21 days after the start of administration. Table 14 provides data for tumor inhibition (TI) and survival rate in the CCRF-CEM and LM3-Jck xenograft models.

Data set [8] deals with LM3-Jck human malignant lymphoma tumor. The data set is described as follows: LM3-Jck xenograft model. In kind it is in vivo, nude mice. How it is done: LM3-Jck human malignant lymphoma tumor lobes (2-3 mm square) were transplanted subcutaneously into nude mice. Tumors were allowed to grow to approximately 7-14 mm in diameter. […] Acceptable toxicity was defined as a mean group weight loss of 30% or less and not more than one toxic death among 6 treated animals. Anti-tumor activities of the drugs were assessed 21 days after the start of administration.

Converted amounts (≈) assume the structure as drawn. Marks after values point to notes of the source that are not given here.

For `CC[C@@]1(O)C(=O)OCc2c1cc1n(c2=O)Cc2cc3ccccc3nc2-1` [Camptothecin, reference compound], the “Sensitization, fold decrease in the EC50 for cytotoxicity (MTT): Caffeine” value in data set [1] was 6 fold. The “Sensitization, fold decrease in the EC50 for cytotoxicity (MTT): DNAPKcs(−/−)” value in data set [2] turned out to be 0.7 fold. Further, in data set [3], the “Sensitization, fold decrease in the EC50 for cytotoxicity (MTT): ATRFLOX” value amounted to 5 fold.
For orientation: IC50 means the concentration that gives 50% inhibition. High values mean weaker potency in that assay, low ones greater potency in that assay. In the case of `COc1cccc2c1C(=O)c1c(O)c3c(c(O)c1C2=O)C[C@@](O)(C(=O)CO)C[C@@H]3O[C@H]1C[C@H](N)[C@H](O)[C@H](C)O1` [Doxorubicin, doxorubicin, reference compound], the IC50 in data set [4] came out at 0.017 µg/mL (≈ 0.0313 µM); in data set [5], 0.003 µg/mL (≈ 0.00552 µM); in data set [6], 0.024 µg/mL (≈ 0.0442 µM). The “IR (%) (tumor inhibition rate)” value in data set [7] (q7d X3, IV, 12 mg/kg) is reported as 50.3* %; in data set [8] (LM3-JcK, q7d X3, IV, 12 mg/kg) it was 57.2* %. Further, the “Survival Ratio” value in data set [8] (nude, mouse, in vivo, iv, 12 mg/kg, 21 days) is 6/6.
Take `COc1cc([C@@H]2c3cc4c(cc3[C@@H](O[C@@H]3O[C@@H]5CO[C@@H](C)O[C@H]5[C@H](O)[C@H]3O)[C@H]3COC(=O)[C@H]23)OCO4)cc(OC)c1O` [Etoposide, etoposide, reference compound]: the “IR (%) (tumor inhibition rate)” value turned out to be 28.3% in data set [7] (qd X 5, IV, 12 mg/kg) and 3.0% in data set [8] (LM3-JcK, qd X 5, IV, 12 mg/kg).
With `CCc1c2c(nc3ccc(OC(=O)N4CCC(N5CCCCC5)CC4)cc13)-c1cc3c(c(=O)n1C2)COC(=O)[C@]3(O)CC` [Irinotecan, irinotecan, reference compound], in data set [7] (q4d x3, IV, 100 mg/kg), the “IR (%) (tumor inhibition rate)” value is on record as 99.7* % and the “Survival Ratio” value is on record as 5/6. For the same compound, in data set [8] (LM3-JcK, q4d x3, IV, 100 mg/kg), the “IR (%) (tumor inhibition rate)” value is reported as 97.7* % and the “Survival Ratio” value is 6/6.
